The values below come from ChEMBL document CHEMBL1201862, “PubChem BioAssay data set” (2004).

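In this assay, cells in 96-well plates receive the compound at five concentrations for 48 hours. Endpoints are linearly interpolated between the surrounding concentrations. GI50 = concentration required for 50% inhibition of growth.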 Activity calls are given as the source filed them. Cut-off read from the data, not from the text of the source: active = GI50 up to about 1.1 µM and inactive = higher.

Test systems include DLD-1; DMS-273; KM-20L2; LXFL 529; M19-MEL; SNB-78; XF498; HOP-18; RXF 631.
Common to all, as to assay: NCI-60 cell line screen, 48 h

Consider `COc1cc2c(cc1OC)C(=O)C(C1=C(SC(=N)N)C(=O)c3cc(OC)c(OC)cc31)C2` (centres undefined), for which the GI50 with DLD-1, in the test on DMS-273, in the test on KM-20L2, in the test with LXFL 529, in the test with M19-MEL and with SNB-78 was > 100 µM (inactive) throughout. For the same compound, the GI50 in the test with XF498 was > 100 µM (inactive).

For `CCOC(=O)N[C@@H]1C(CC(=O)OC)O[C@H]2OC(C)(C)O[C@H]21` (some centres undefined), the GI50 with DLD-1, with DMS-273, with HOP-18, in the test on KM-20L2, with LXFL 529 and with M19-MEL was > 100 µM (inactive) in each case. Moreover, the GI50 in the test with RXF 631, with SNB-78 and with XF498 was > 100 µM (inactive) each time.

On to `Cc1cc2c(=O)c3ccc(Cl)cc3[nH]c2c(C(N)=O)c1C`, for which the GI50 with DLD-1, in the test on DMS-273, in the test on KM-20L2, in the test on LXFL 529, in the test with M19-MEL and with RXF 631 was > 100 µM (inactive) throughout. Also, the GI50 with SNB-78 and in the test on XF498 was > 100 µM (inactive) throughout.

On to `NC(CCSC(F)F)C(=O)O` (centres undefined), for which the GI50 in the test on DLD-1, in the test with DMS-273, with KM-20L2, in the test on LXFL 529, in the test on M19-MEL and in the test with SNB-78 was > 100 µM (inactive) throughout. Further, the GI50 in the test with XF498 is > 100 µM (inactive).

With `COC(=O)/C(C#N)=C(\N)C(Cl)(Cl)Cl`, the GI50 is 1.17 µM (inactive) in the test with DLD-1; 3.45 µM (inactive) in the test on DMS-273; 29.7 µM (inactive) in the test on KM-20L2; 2.7 µM (inactive) in the test with LXFL 529; 2.43 µM (inactive) in the test with M19-MEL; 2.78 µM (inactive) in the test on RXF 631. Further, the GI50 is 6.18 µM (inactive) in the test on SNB-78 and 1.78 µM (inactive) with XF498.

For `C[N+](C)(C)CC1CCCC1=O` (centres undefined), the GI50 in the test with DLD-1 is 1.01 µM (active); in the test on DMS-273, 6.87 µM (inactive); in the test with HOP-18 it was 1.87 µM (inactive); in the test with KM-20L2 it was 2.61 µM (inactive); in the test with LXFL 529, 1.26 µM (inactive); with M19-MEL, 2.22 µM (inactive). Moreover, the GI50 is 14.2 µM (inactive) in the test with RXF 631, 3.24 µM (inactive) with SNB-78 and 1.87 µM (inactive) in the test on XF498.

For `CC1OC(OC2CCCc3c(O)c4c(c(O)c32)C(=O)c2ccccc2C4=O)CC(N)C1O` (centres undefined), the GI50 in the test on DLD-1 was 1.33 µM (inactive); in the test with KM-20L2, 2.01 µM (inactive); in the test on LXFL 529, 1.55 µM (inactive); in the test on M19-MEL it was 1.78 µM (inactive); in the test on RXF 631, 1.5 µM (inactive); in the test with SNB-78 it was 1.89 µM (inactive). In addition, in the test on XF498, the GI50 is 1.93 µM (inactive).

Take `O=C1OC2C(O)COC2(O)C1(O)C(C[N+](=O)[O-])c1ccc(Cl)cc1` (centres undefined): the GI50 in the test on DLD-1 is 1.81 µM (inactive); in the test on DMS-273, 3.3 µM (inactive); in the test with HOP-18, 9.02 µM (inactive); in the test on KM-20L2, 2.51 µM (inactive); with LXFL 529, 1.95 µM (inactive); in the test on M19-MEL, 2.5 µM (inactive). Besides, the GI50 with SNB-78 is 13.8 µM (inactive).

`Cc1c(N2CCOCC2)nc2ccc(Cl)cc2c1-c1ccccc1`: the GI50 with DMS-273 is 59.8 µM (inactive); with LXFL 529, 61.2 µM (inactive); with M19-MEL, 85.7 µM (inactive); with SNB-78, > 100 µM (inactive).

For the compound `Cc1c(C(=O)CSc2nc3cc([N+](=O)[O-])ccc3[nH]2)c(=O)n(-c2ccccc2)n1C`, the GI50 in the test with DLD-1, in the test with DMS-273, in the test on LXFL 529, with M19-MEL and in the test with XF498 was > 100 µM (inactive) each time.

`O=C1CC2(C[C@@H]3CCCCCCCCC[C@@H](C3)C2)N1` (some centres undefined): the GI50 is 12.3 µM (inactive) in the test on DMS-273; 10.5 µM (inactive) with HOP-18; 15.6 µM (inactive) with KM-20L2; 15.7 µM (inactive) in the test on LXFL 529; 15.2 µM (inactive) in the test on M19-MEL; 23.4 µM (inactive) with SNB-78. Moreover, the GI50 in the test with XF498 is 12.2 µM (inactive).

For `COc1cc(NCC(C#N)C#N)ccc1/N=N/c1ccc([N+](=O)[O-])cc1`, the GI50 in the test on DLD-1 is > 100 µM (inactive); in the test on DMS-273, > 100 µM (inactive); in the test on HOP-18, > 100 µM (inactive); in the test on KM-20L2 it was > 100 µM (inactive); in the test with LXFL 529, 37.6 µM (inactive); with M19-MEL, > 100 µM (inactive). In addition, the GI50 in the test on RXF 631 and with SNB-78 was > 100 µM (inactive) each time.

For the compound `CCOP(=O)(OCC)/C(C#N)=C\c1ccc(OC(C)=O)cc1`, the GI50 with DLD-1, in the test on HOP-18, with KM-20L2, in the test with LXFL 529, in the test on M19-MEL and with SNB-78 was > 100 µM (inactive) throughout. The GI50 in the test with XF498 is > 100 µM (inactive).

In the case of `COc1ccc2cc3[n+](cc2c1O)CCc1cc2c(cc1-3)OCO2` [BERBERRUBINE CHLORIDE], the GI50 in the test on DLD-1 was > 100 µM (inactive); with HOP-18, > 100 µM (inactive); with KM-20L2, > 100 µM (inactive); in the test with LXFL 529, > 10 µM (inactive); in the test on M19-MEL, > 100 µM (inactive); in the test with SNB-78 it was > 100 µM (inactive). Moreover, the GI50 with XF498 was > 100 µM (inactive).

For the compound `O=C(CC1C(=O)Nc2ccccc2S1(=O)=O)Nc1cccc(Cl)c1` (centres undefined), the GI50 in the test with DLD-1 is 17.5 µM (inactive); in the test with DMS-273, 14.5 µM (inactive); in the test with KM-20L2 it was 21.1 µM (inactive); in the test on LXFL 529, 17.2 µM (inactive); in the test on M19-MEL it was 19.1 µM (inactive); in the test with RXF 631 it was 19.9 µM (inactive). Also, the GI50 in the test on SNB-78 is 59.7 µM (inactive); with XF498, 21.3 µM (inactive).

In the case of `CCCN1CN(C(C(=O)N[C@@H]2C(=O)N3C2SC(C)(C)C3C(=O)O)c2ccccc2)CSC1=S` (some centres undefined), the GI50 in the test with DLD-1 is 84.1 µM (inactive); in the test on DMS-273, 48.8 µM (inactive); in the test with HOP-18, > 100 µM (inactive); in the test with KM-20L2 it was > 100 µM (inactive); in the test on LXFL 529, 70.5 µM (inactive); in the test with M19-MEL, > 100 µM (inactive). Further, the GI50 in the test on SNB-78 and in the test with XF498 was > 100 µM (inactive) in each case.

For `O=C1O[B-](c2ccccc2)(c2ccccc2)[NH2+]C1CS` (centres undefined), the GI50 was 33 µM (inactive) with DLD-1; 34.9 µM (inactive) in the test with DMS-273; > 100 µM (inactive) in the test on HOP-18; 64.7 µM (inactive) in the test on KM-20L2; 39.9 µM (inactive) with LXFL 529; 35.3 µM (inactive) in the test on M19-MEL. Further, the GI50 in the test with RXF 631 is 50.8 µM (inactive); in the test with SNB-78 it was 65.9 µM (inactive); in the test on XF498, > 100 µM (inactive).

In the case of `CCCOP1(=O)C=CC(Cl)=C(C)C1` (centres undefined), the GI50 is 20.6 µM (inactive) in the test with DLD-1; 50.4 µM (inactive) with HOP-18; 48.1 µM (inactive) with KM-20L2; 23.7 µM (inactive) with LXFL 529; 53.1 µM (inactive) with SNB-78; 23.6 µM (inactive) with XF498.

With `CCOc1ccc(/C=C/C(=O)c2sc(NNC(C)=O)nc2C)cc1`, the GI50 with DLD-1, in the test with DMS-273, in the test with HOP-18, in the test with KM-20L2, in the test on M19-MEL and in the test with SNB-78 was > 100 µM (inactive) in each case.

With `Cc1c(/C=N/NC(=O)c2cc(Br)cc(Br)c2O)c(=O)n(-c2ccccc2)n1C`, the GI50 with DLD-1 is 67.1 µM (inactive); in the test with DMS-273 it was 5.25 µM (inactive); in the test with KM-20L2, 58.3 µM (inactive); with LXFL 529, 75.9 µM (inactive); in the test with M19-MEL, > 100 µM (inactive); with SNB-78 it was > 100 µM (inactive). For the same compound, in the test with XF498, the GI50 was 17.6 µM (inactive).

Turning to `COc1nc2nccc-2c2occn12`, the GI50 in the test on DLD-1, in the test with DMS-273, in the test on HOP-18, in the test with KM-20L2, in the test with LXFL 529 and in the test with M19-MEL was > 100 µM (inactive) throughout. For the same compound, the GI50 with RXF 631, in the test on SNB-78 and in the test on XF498 was > 100 µM (inactive) each time.

As for `CCOC(=O)C1=C(O)C(=O)c2cc(C)ccc2C1=O`, the GI50 was > 100 µM (inactive) in the test on DLD-1; > 100 µM (inactive) with DMS-273; 45.5 µM (inactive) with HOP-18; > 100 µM (inactive) with KM-20L2; 16.6 µM (inactive) with M19-MEL; > 100 µM (inactive) with SNB-78. Also, the GI50 with XF498 was > 100 µM (inactive).

Take `NC(CCc1ncc(-c2ccccc2)s1)C(=O)O` (centres undefined): the GI50 with DLD-1, in the test on DMS-273, with HOP-18, in the test on LXFL 529, in the test with RXF 631 and in the test on SNB-78 was > 100 µM (inactive) in each case.

In the case of `NC(=O)C(=Cc1ccc(CP(=O)(O)O)cc1)C(N)=O`, the GI50 with DLD-1, in the test with DMS-273, with HOP-18, with KM-20L2, in the test with LXFL 529 and in the test on M19-MEL was > 100 µM (inactive) throughout. For the same compound, the GI50 in the test with SNB-78 and with XF498 was > 100 µM (inactive) each time.

On to `O=C(O)CCSC(=O)Nc1ccc(/N=N/c2ccccc2)cc1`, for which the GI50 in the test on DLD-1 was > 100 µM (inactive); in the test with DMS-273, > 100 µM (inactive); in the test with HOP-18, > 100 µM (inactive); with KM-20L2, > 100 µM (inactive); with LXFL 529 it was 61.1 µM (inactive); in the test with RXF 631, > 100 µM (inactive). The GI50 in the test on SNB-78 and in the test on XF498 was > 100 µM (inactive) each time.

Consider `N=c1oc2c(O)c(O)ccc2cc1C(N)=O`, for which the GI50 in the test with DLD-1 was > 100 µM (inactive); with DMS-273, > 100 µM (inactive); in the test with KM-20L2 it was > 100 µM (inactive); in the test on LXFL 529 it was 31.6 µM (inactive); with M19-MEL it was 21.3 µM (inactive); in the test on SNB-78 it was > 100 µM (inactive). Moreover, in the test with XF498, the GI50 was 25.2 µM (inactive).
